This assay has as its system patients with dry eye disease. Nature of the assay: Phase 2b: overall efficacy on signs and symptoms. The format is in vivo, human. On the procedure: In a Phase 2b clinical trial, the efficacy of Reproxalap Ophthalmic Solutions (0.25% and 0.1%) were evaluated in patients with dry eye disease (see the details in Example 1). […] The efficacy profile of Reproxalap Ophthalmic Solutions was evident as early as two weeks following treatment initiation. […] Efficacy Analysis • Evaluated baseline to weeks 2, 4, 8 and 12 change scores with reproxalap on DED sign and symptom endpoints (both pre-CAE and CAE endpoints). Each endpoint was analyzed at a two-sided alpha level of 0.05, and the overall type I error was not controlled for in this investigative study. • Evaluated effect size of baseline to weeks 2, 4, 8 and 12 change scores of reproxalap vs vehicle on DED sign and symptom endpoints (both pre-CAE and CAE endpoints) to confirm the endpoint selection for primary outcome parameters and sample size for Phase 3 studies with reproxalap. • Sub-group analyses on effect size of baseline to weeks 2, 4, 8 and 12 change scores of reproxalap vs vehicle on DED sign and symptom endpoints (both pre-CAE and CAE endpoints) [Subgroups were prospectively detailed in the Statistical Analysis Plan (SAP)].

For the compound `CC(C)(O)c1nc2ccc(Cl)cc2cc1N` [Reproxalap, reproxalap], the “Dose response between 0.1% and 0.25% dose strengths” value is listed as “dose response”.

Source of the values: patent US20220133629A1, “FORMULATIONS FOR TREATMENT OF DRY EYE DISEASE” (Aldeyra Therapeutics, Inc., priority 2018, published 2022).
